Legend:
[1] = Phase 1 Part 1a: single rising oral doses, fasted, plasma pharmacokinetics; type: in vivo, human; conditions: for AUC(0-inf) / Cmax / Tmax / half-life: human, plasma
Source text: A Randomized, Double-Blind, Placebo-Controlled, Phase 1 Study to Assess the Safety, Tolerability, Pharmacokinetics and Food Effect of Single and Multiple Doses of Orally Administered Compound of Formula (I) in Healthy Adult and Elderly Subjects The study was a single-centre, randomized, placebo-controlled single- and multiple ascending dose study in healthy male and female (no childbearing potential) volunteers aged 18-80 years. Study objectives were safety, tolerability, food effect and pharmacokinetics. Following identification of safe and tolerable single doses in healthy male subjects aged 18-55 years, separate cohorts were dosed to assess food effect. Furthermore, multiple-dose safety, tolerability, pharmacokinetics, CSF drug levels and pharmacodynamics were assessed in elderly (age 55-80 years) male or healthy non-child-bearing potential female volunteers. [table] The single-dose pharmacokinetics of seven, ascending, dose levels of compound of Formula (I) (20, 40, 80, 160, 300, 600 and 1000 mg of compound (I) fasted state) were evaluated in part 1a of a randomized, placebo-controlled, time lagged, parallel/crossover group study in healthy young volunteers Compound (I) pharmacokinetic data were measured in plasma and in urine up to 72 hours post dose.

[2] = Phase 1 Part 1b: food effect, single 300 mg dose fasted/fed, plasma pharmacokinetics; type: in vivo, human; conditions: for Tmax / AUC(0-inf) / Cmax / half-life: human, plasma; for AUC(0-inf) / Cmax / half-life: arithmetic mean
Description: The study was a single-centre, randomized, placebo-controlled single- and multiple ascending dose study in healthy male and female (no childbearing potential) volunteers aged 18-80 years. Study objectives were safety, tolerability, food effect and pharmacokinetics. Following identification of safe and tolerable single doses in healthy male subjects aged 18-55 years, separate cohorts were dosed to assess food effect. Furthermore, multiple-dose safety, tolerability, pharmacokinetics, CSF drug levels and pharmacodynamics were assessed in elderly (age 55-80 years) male or healthy non-child-bearing potential female volunteers. [table]

DSS colitis model = assay: In vivo treatment efficacy on DSS colitis model; conditions: balb/c mice, oral gavage for 21 days, 5% DSS
Description: The dextran sodium sulfate (DSS) is a negatively charged sulfated polysaccharide of approximately 36-50 kDa which induces colitis when administered at 5% (weight/volume) in drinking water for several days (Okayasu I. et al. (1990) Gastroenterology 98:694-702).
Adult (balb/c) mice are randomized and are allowed to a period of acclimatization for one week. After this, the compound of formula (I) or vehicle is administered for 21 days by oral gavage, starting 2 weeks before the DSS treatment (Day −14) and continuing during DSS treatment and until the end of the experiment (Day +9). At Day 0, animals are getting access to a 5% (weight/volume) DSS solution in drinking water until Day +5. The DSS solution is then removed and replaced by drinking water for 4 more days until Day +9. From Day 0 until the end of the experiment […], animals are monitored daily for clinical signs of colitis including bodyweight loss, loose stools and/or diarrhoea and presence of occult or gross blood in the stools. At Day +12 or when animals reach humane endpoints, colons are dissected out, to measure their lengths and observe their content. A sample of distal colon is processed for histopathology. […]
Histological injury and inflammation are scored as described in Gilbert et al (2012) (Gilbert S. et al. (2012) EMBO Mol. Med. 4: 109-124). […]

[3] = tested on: patients with probable PSP Richardson's syndrome; assay: Phase 2 clinical trial, dose extension (Example 7); type: in vivo, human; conditions: 300 mg, 150 mg or 75 mg TID PO
Description: The study design of this Example 7 is analogous to the study described in Example 6, a randomized, multi-centre, double-blind, placebo-controlled trial to study the safety and tolerability of compound (I) in patients with probable PSP Richardson's syndrome. Approximately 40 patients (40 to 85 years of age, inclusive) are randomized in a 2:1:1:1 ratio to 300 mg or 150 mg or 75 mg or placebo TID PO, with or without food.

[4] = single oral dose 20 mg, fasted, healthy male subjects, arithmetic mean
[5] = single oral dose 40 mg, fasted, healthy male subjects, arithmetic mean
[6] = single oral dose 80 mg, fasted, healthy male subjects, arithmetic mean
[7] = single oral dose 160 mg, fasted, healthy male subjects, arithmetic mean
[8] = single oral dose 300 mg, fasted, healthy male subjects, arithmetic mean
[9] = single oral dose 600 mg, fasted, healthy male subjects, arithmetic mean
[10] = single oral dose 1000 mg, fasted, healthy male subjects, arithmetic mean
[11] = po, single oral dose 300 mg, fasted condition, healthy elderly subjects
[12] = po, single oral dose 300 mg, fed condition, healthy elderly subjects

Question: With `CC(=O)Nc1nnc(N2CCN([C@@H](C)c3ccc4c(c3)OCO4)CC2)s1` [Compound (I)] as the compound, how does the “deviation of dose normalized AUC” value ([1]; AUC over 24 hours, dose levels 300, 600 and 1000 mg) read?
Answer: The value was ≤ 10%.

Question: And the AUC(0-inf) [1, 4]?
Answer: Its AUC(0-inf) is 473 ng·h/mL.

Question: What about the Cmax [1, 4] of the same compound?
Answer: Its Cmax is 227 ng/mL.

Question: And the Tmax ([1]; single oral dose 20 mg, fasted, healthy male subjects, median (min, max), read-out: Tmax)?
Answer: The Tmax was 0.5 h.

Question: What about the AUC(0-inf) [1, 5] of the same compound?
Answer: Its AUC(0-inf) is 1160 ng·h/mL.

Question: What about the Cmax [1, 5] of the same compound?
Answer: The Cmax was 468 ng/mL.

Question: What about the Tmax ([1]; single oral dose 40 mg, fasted, healthy male subjects, median (min, max), read-out: Tmax) of the same compound?
Answer: The Tmax was 1 h.

Question: And the AUC(0-inf) [1, 6]?
Answer: The AUC(0-inf) was 3270 ng·h/mL.

Question: What about the Cmax [1, 6] of the same compound?
Answer: Its Cmax is 1370 ng/mL.

Question: And the Tmax ([1]; single oral dose 80 mg, fasted, healthy male subjects, median (min, max), read-out: Tmax)?
Answer: The Tmax was 0.5 h.

Question: And the AUC(0-inf) [1, 7]?
Answer: The AUC(0-inf) was 7010 ng·h/mL.

Question: What about the Cmax [1, 7] of the same compound?
Answer: The Cmax was 1880 ng/mL.

Question: What about the Tmax ([1]; single oral dose 160 mg, fasted, healthy male subjects, median (min, max), read-out: Tmax) of the same compound?
Answer: Its Tmax is 1.5 h.

Question: What about the AUC(0-inf) [1, 8] of the same compound?
Answer: Its AUC(0-inf) is 15400 ng·h/mL.

Question: And the Cmax [1, 8]?
Answer: The Cmax was 3990 ng/mL.

Question: What about the Tmax ([1]; single oral dose 300 mg, fasted, healthy male subjects, median (min, max), read-out: Tmax) of the same compound?
Answer: The Tmax was 1.25 h.

Question: And the AUC(0-inf) [1, 9]?
Answer: Its AUC(0-inf) is 33300 ng·h/mL.

Question: And the Cmax [1, 9]?
Answer: Its Cmax is 7180 ng/mL.

Question: What about the Tmax ([1]; single oral dose 600 mg, fasted, healthy male subjects, median (min, max), read-out: Tmax) of the same compound?
Answer: The Tmax was 1.25 h.

Question: And the AUC(0-inf) [1, 10]?
Answer: Its AUC(0-inf) is 50200 ng·h/mL.

Question: And the Cmax [1, 10]?
Answer: The Cmax was 10100 ng/mL.

Question: And the Tmax ([1]; single oral dose 1000 mg, fasted, healthy male subjects, median (min, max), read-out: Tmax)?
Answer: The Tmax was 1.5 h.

Question: What about the half-life ([1]; male, oral, single dose 20 to 1000 mg, read-out: terminal half-life (t½), range of means at the different dose levels) of the same compound?
Answer: Its half-life is 3.9 to 10.7 h.

Question: And the half-life ([1]; male, oral, single dose 20 mg to 1000 mg, read-out: mean terminal half-life, range over the 7 dose levels)?
Answer: Its half-life is 4.59 to 8.84 h.

Question: What about the Tmax ([1]; male, oral, single dose 20 mg to 1000 mg, read-out: median Tmax, range over dose levels) of the same compound?
Answer: Its Tmax is 0.5 to 1.5 h.

Question: What about the half-life ([1]; male, po, 20 mg, single oral dose 20 mg, fasted, healthy male subjects, arithmetic mean, read-out: t1/2 (converted)) of the same compound?
Answer: The half-life was 4.59 h.

Question: What about the half-life ([1]; male, po, 40 mg, single oral dose 40 mg, fasted, healthy male subjects, arithmetic mean, read-out: t1/2 (converted)) of the same compound?
Answer: The half-life was 5.95 h.

Question: What about the half-life ([1]; male, po, 80 mg, single oral dose 80 mg, fasted, healthy male subjects, arithmetic mean, read-out: t1/2 (converted)) of the same compound?
Answer: Its half-life is 8.84 h.

Question: And the half-life ([1]; male, po, 160 mg, single oral dose 160 mg, fasted, healthy male subjects, arithmetic mean, read-out: t1/2 (converted))?
Answer: Its half-life is 6.83 h.

Question: And the half-life ([1]; male, po, 300 mg, single oral dose 300 mg, fasted, healthy male subjects, arithmetic mean, read-out: t1/2 (converted))?
Answer: Its half-life is 7.95 h.

Question: What about the half-life ([1]; male, po, 600 mg, single oral dose 600 mg, fasted, healthy male subjects, arithmetic mean, read-out: t1/2 (converted)) of the same compound?
Answer: The half-life was 6.07 h.

Question: And the half-life ([1]; male, po, 1000 mg, single oral dose 1000 mg, fasted, healthy male subjects, arithmetic mean, read-out: t1/2 (converted))?
Answer: The half-life was 6.6 h.

Question: What about the “dose proportionality of Cmax” value ([1]; single dose, dosing range 20 mg to 1000 mg) of the same compound?
Answer: The value was “Dose proportionality was observed”.

Question: And the “dose proportionality of AUCs” value ([1]; single dose, dosing range 300 mg to 1000 mg)?
Answer: Its value is “Dose proportionality was observed”.

Question: And the “overall exposure via AUC0-t and AUC0-inf, fed versus fasted” value [2]?
Answer: The value was “comparable”.

Question: And the “difference of exposure (AUC) and Cmax, healthy elderly versus healthy young cohort” value ([2]; fasted state)?
Answer: Its value is 15%.

Question: What about the “Cmax in fed state as share of Cmax in fasted state” value ([2]; healthy elderly subjects) of the same compound?
Answer: The value was “about 60%”.

Question: What about the “delay of absorption in fed state” value ([2]; healthy elderly subjects) of the same compound?
Answer: Its value is “approximately 3 hours”.

Question: What about the “exposure (AUC) in fed state as share of exposure in fasted state” value ([2]; healthy elderly subjects) of the same compound?
Answer: Its value is “approximately 90%”.

Question: What about the Tmax ([2]; oral, fasted condition, read-out: median Tmax) of the same compound?
Answer: Its Tmax is 1 h.

Question: What about the Tmax ([2]; oral, with high-fat, high-calorie meal, read-out: median Tmax) of the same compound?
Answer: Its Tmax is 4 h.

Question: What about the AUC(0-inf) [2, 11] of the same compound?
Answer: The AUC(0-inf) was 17100 ng·h/mL.

Question: And the Cmax [2, 11]?
Answer: The Cmax was 4160 ng/mL.

Question: What about the half-life [2, 11] of the same compound?
Answer: The half-life was 7.27 h.

Question: And the Tmax ([2]; po, single oral dose 300 mg, fasted condition, healthy elderly subjects, median (min, max), read-out: Tmax)?
Answer: The Tmax was 1 h.

Question: And the AUC(0-inf) [2, 12]?
Answer: The AUC(0-inf) was 15100 ng·h/mL.

Question: And the Cmax [2, 12]?
Answer: Its Cmax is 2410 ng/mL.

Question: What about the half-life [2, 12] of the same compound?
Answer: The half-life was 7.06 h.

Question: What about the Tmax ([2]; po, single oral dose 300 mg, fed condition, healthy elderly subjects, median (min, max), read-out: Tmax) of the same compound?
Answer: Its Tmax is 4 h.

Question: What about the “disease score (body weight loss, stool, blood in feces, general appearance)” value (DSS colitis model) of the same compound?
Answer: Its value is “decrease in the disease score”.

Question: And the “tissue inflammation by histology examination” value (DSS colitis model)?
Answer: The value was “significant decrease of tissue inflammation”.

Question: What about the “efficacy, safety and tolerability of the preferred dosage regimen” value [3] of the same compound?
Answer: The value was “especially effective, safe and well tolerated”.
